# Reference: article PMC9578392, “Safety, Tolerability, and Pharmacokinetics of the Novel Antiviral Agent Ensitrelvir Fumaric Acid, a SARS-CoV-2 3CL Protease Inhibitor, in Healthy Adults” (Antimicrobial Agents and Chemotherapy, 2022)
# Test: Treatment-emergent adverse events, single dose (part 1)
# Assay type: in vivo, human
# Procedure: In part 1, Japanese participants were randomized to receive placebo or single dose of ensitrelvir (20, 70, 250, 500, 1,000, and 2,000 mg given to cohorts A, B, C, D, E, and J, respectively), suspended in 0.5% methylcellulose, in the fasted state. Additionally, in cohort C, the effect of food on the pharmacokinetics of ensitrelvir was investigated in a 2-group, 2-period crossover design by administering placebo or ensitrelvir (250 mg) in the fasted or fed (high-fat/high-calorie) state. In part 2, Japanese participants were randomized to receive placebo or multiple doses of ensitrelvir, suspended in 0.5% methylcellulose. The multiple-dose regimens were as follows: once-daily doses of ensitrelvir 375 mg on day 1 and 125 mg on days 2 to 5 (cohort F), or 750 mg on day 1 and 250 mg on days 2 to 6 (cohort G) in the fasted state. White participants were randomized to receive placebo or multiple doses of ensitrelvir. The multiple-dose regimens were as follows: once-daily doses of ensitrelvir 375 mg on day 1 and 125 mg on days 2 to 5 (cohort H). Each cohort included 11 participants. In cohort G, the effect of ensitrelvir on the pharmacokinetics of midazolam (syrup) was evaluated in an open label self-controlled crossover design. Midazolam 2 mg alone was administered 2 days prior to initiating ensitrelvir administration (on day −2) and midazolam was coadministered on day 6 with placebo or ensitrelvir in the fasted state to participants following once-daily doses for 5 days of placebo (days 1 to 5) or ensitrelvir (750 mg on day 1 and 250 mg on days 2–5).
# The nature, frequency, and severity of TEAEs were evaluated and recorded.
# [1] = Cohort A 20 mg single dose, n = 6
# [2] = Cohort B 70 mg single dose, n = 6
# [3] = Cohort C (fasted) 250 mg single dose, n = 8
# [4] = Cohort D 500 mg single dose, n = 6
# [5] = Cohort E 1,000 mg single dose, n = 6
# [6] = Cohort J 2,000 mg single dose, n = 6
smiles,measurement,setting,value
"Cn1cnc(Cn2c(=O)[nH]/c(=N\c3cc4cn(C)nc4cc3Cl)n(Cc3cc(F)c(F)cc3F)c2=O)n1 [Ensitrelvir, ensitrelvir fumaric acid]","Abdominal pain, Events",[1],0
same,"Abdominal pain, n (%)",[1],0
same,"Chills, Events",[1],0
same,"Chills, n (%)",[1],0
same,"Feces soft, Events",[1],0
same,"Feces soft, n (%)",[1],0
same,"Gastrointestinal disorders, Events",[1],0
same,"Gastrointestinal disorders, n (%)",[1],0
same,"General disorders and administration site conditions, Events",[1],0
same,"General disorders and administration site conditions, n (%)",[1],0
same,"Headache, Events",[1],0
same,"Headache, n (%)",[1],0
same,"High density lipoprotein cholesterol decreased, Events",[1],0
same,"High density lipoprotein cholesterol decreased, n (%)",[1],0
same,"Investigations, Events",[1],0
same,"Investigations, n (%)",[1],0
same,"Nausea, Events",[1],0
same,"Nausea, n (%)",[1],0
same,"Nervous system disorders, Events",[1],0
same,"Nervous system disorders, n (%)",[1],0
same,"Participants with any TEAE, Events",[1],0
same,"Participants with any TEAE, n (%)",[1],0
same,"Vomiting, Events",[1],0
same,"Vomiting, n (%)",[1],0
same,"Abdominal pain, Events",[2],1
same,"Abdominal pain, n (%)",[2],1 (16.7)
same,"Chills, Events",[2],0
same,"Chills, n (%)",[2],0
same,"Feces soft, Events",[2],0
same,"Feces soft, n (%)",[2],0
same,"Gastrointestinal disorders, Events",[2],1
same,"Gastrointestinal disorders, n (%)",[2],1 (16.7)
same,"General disorders and administration site conditions, Events",[2],0
same,"General disorders and administration site conditions, n (%)",[2],0
same,"Headache, Events",[2],1
same,"Headache, n (%)",[2],1 (16.7)
same,"High density lipoprotein cholesterol decreased, Events",[2],0
same,"High density lipoprotein cholesterol decreased, n (%)",[2],0
same,"Investigations, Events",[2],0
same,"Investigations, n (%)",[2],0
same,"Nausea, Events",[2],0
same,"Nausea, n (%)",[2],0
same,"Nervous system disorders, Events",[2],1
same,"Nervous system disorders, n (%)",[2],1 (16.7)
same,"Participants with any TEAE, Events",[2],2
same,"Participants with any TEAE, n (%)",[2],2 (33.3)
same,"Vomiting, Events",[2],0
same,"Vomiting, n (%)",[2],0
same,"Abdominal pain, Events",[3],0
same,"Abdominal pain, n (%)",[3],0
same,"Chills, Events",[3],0
same,"Chills, n (%)",[3],0
same,"Feces soft, Events",[3],0
same,"Feces soft, n (%)",[3],0
same,"Gastrointestinal disorders, Events",[3],0
same,"Gastrointestinal disorders, n (%)",[3],0
same,"General disorders and administration site conditions, Events",[3],0
same,"General disorders and administration site conditions, n (%)",[3],0
same,"Headache, Events",[3],0
same,"Headache, n (%)",[3],0
same,"High density lipoprotein cholesterol decreased, Events",[3],0
same,"High density lipoprotein cholesterol decreased, n (%)",[3],0
same,"Investigations, Events",[3],0
same,"Investigations, n (%)",[3],0
same,"Nausea, Events",[3],0
same,"Nausea, n (%)",[3],0
same,"Nervous system disorders, Events",[3],0
same,"Nervous system disorders, n (%)",[3],0
same,"Participants with any TEAE, Events",[3],0
same,"Participants with any TEAE, n (%)",[3],0
same,"Vomiting, Events",[3],0
same,"Vomiting, n (%)",[3],0
same,"Abdominal pain, Events",[4],0
same,"Abdominal pain, n (%)",[4],0
same,"Chills, Events",[4],0
same,"Chills, n (%)",[4],0
same,"Feces soft, Events",[4],0
same,"Feces soft, n (%)",[4],0
same,"Gastrointestinal disorders, Events",[4],0
same,"Gastrointestinal disorders, n (%)",[4],0
same,"General disorders and administration site conditions, Events",[4],0
same,"General disorders and administration site conditions, n (%)",[4],0
same,"Headache, Events",[4],0
same,"Headache, n (%)",[4],0
same,"High density lipoprotein cholesterol decreased, Events",[4],0
same,"High density lipoprotein cholesterol decreased, n (%)",[4],0
same,"Investigations, Events",[4],0
same,"Investigations, n (%)",[4],0
same,"Nausea, Events",[4],0
same,"Nausea, n (%)",[4],0
same,"Nervous system disorders, Events",[4],0
same,"Nervous system disorders, n (%)",[4],0
same,"Participants with any TEAE, Events",[4],0
same,"Participants with any TEAE, n (%)",[4],0
same,"Vomiting, Events",[4],0
same,"Vomiting, n (%)",[4],0
same,"Abdominal pain, Events",[5],0
same,"Abdominal pain, n (%)",[5],0
same,"Chills, Events",[5],0
same,"Chills, n (%)",[5],0
same,"Feces soft, Events",[5],0
same,"Feces soft, n (%)",[5],0
same,"Gastrointestinal disorders, Events",[5],0
same,"Gastrointestinal disorders, n (%)",[5],0
same,"General disorders and administration site conditions, Events",[5],0
same,"General disorders and administration site conditions, n (%)",[5],0
same,"Headache, Events",[5],0
same,"Headache, n (%)",[5],0
same,"High density lipoprotein cholesterol decreased, Events",[5],6
same,"High density lipoprotein cholesterol decreased, n (%)",[5],6 (100)
same,"Investigations, Events",[5],6
same,"Investigations, n (%)",[5],6 (100)
same,"Nausea, Events",[5],0
same,"Nausea, n (%)",[5],0
same,"Nervous system disorders, Events",[5],0
same,"Nervous system disorders, n (%)",[5],0
same,"Participants with any TEAE, Events",[5],6
same,"Participants with any TEAE, n (%)",[5],6 (100)
same,"Vomiting, Events",[5],0
same,"Vomiting, n (%)",[5],0
same,"High density lipoprotein cholesterol decreased, n (%)","Cohort E 1,000 mg single dose, n = 6, listed as ensitrelvir",6/6
same,"Abdominal pain, Events",[6],0
same,"Abdominal pain, n (%)",[6],0
same,"Chills, Events",[6],1
same,"Chills, n (%)",[6],1 (16.7)
same,"Feces soft, Events",[6],1
same,"Feces soft, n (%)",[6],1 (16.7)
same,"Gastrointestinal disorders, Events",[6],3
same,"Gastrointestinal disorders, n (%)",[6],1 (16.7)
same,"General disorders and administration site conditions, Events",[6],1
same,"General disorders and administration site conditions, n (%)",[6],1 (16.7)
same,"Headache, Events",[6],1
same,"Headache, n (%)",[6],1 (16.7)
same,"High density lipoprotein cholesterol decreased, Events",[6],6
same,"High density lipoprotein cholesterol decreased, n (%)",[6],6 (100)
same,"Investigations, Events",[6],6
same,"Investigations, n (%)",[6],6 (100)
same,"Nausea, Events",[6],1
same,"Nausea, n (%)",[6],1 (16.7)
same,"Nervous system disorders, Events",[6],1
same,"Nervous system disorders, n (%)",[6],1 (16.7)
same,"Participants with any TEAE, Events",[6],11
same,"Participants with any TEAE, n (%)",[6],6 (100)
same,"Vomiting, Events",[6],1
same,"Vomiting, n (%)",[6],1 (16.7)
same,"High density lipoprotein cholesterol decreased, n (%)","Cohort J 2,000 mg single dose, n = 6, listed as ensitrelvir",6/6
same,overall tolerability,"single and multiple doses, all doses tested, healthy participants",well tolerated across all doses tested
same,severity of adverse events,"single dose 20–2,000 mg, cohorts A–E and J",a All adverse events were mild.
